What all share (assay type): cell-based
The test system of one data set is human RBCs. In words: Haemolytic activity. As to conditions: concentration at which 50% of human blood cells are lysed; 1 h at 37° C. As for the experimental part: Erythrocytes were isolated from freshly drawn, heparanized human blood and re-suspended to 5 vol % in PBS (pH 7.4). In a 96-well microtiter plate, 150 μl of erythrocyte suspension was added to 50 μl of serially diluted compound. Two controls were made, one without compound and other with 50 μl of 1 vol % solution of Triton X-100. The plate was incubated for 1 h at 37° C. The plate was then centrifuged at 3,500 rpm for 5 min, 100 μl of the supernatant from each well was transferred to a fresh 96-well microtiter plate, and A540 was measured. Percentage of hemolysis was determined as (A−A0)/(Atotal−A0)×100, where A is the absorbance of the test well, A0 the absorbance of the negative controls (without compound), and Atotal the absorbance of 100% hemolysis wells (with Triton X-100), all at 540 nm.
Toxicity studies of the compounds were done on freshly drawn human RBCs. Toxicity of the compounds were defined by their HC50 values (Table 2), i.e. the concentration of compound at which 50% of the blood cells are lysed.

Data set [1] has as its system A. baumannii R674. In words: Chequerboard combination efficacy of adjuvant with antibiotics. How it is done:
(§1) All the solvents were of reagent grade, which were distilled and dried before its use. All the reagents were purchased from Sigma-Aldrich, Alfa-Aesar, S.D. Fine, Avra and Spectrochem, and were used without further purification. Analytical thin layer chromatography (TLC) was performed on E. Merck TLC plates pre-coated with silica gel 60 F254 and visualization was carried out using UV light and Iodine. Column chromatography was performed on silica gel (60-120 mesh) using different ratio of chloroform and methanol solvent system. Nuclear magnetic resonance spectra were recorded on Bruker (AV-400) 400 MHz spectrometer in deuterated solvents. Mass spectra were obtained using 6538-UHD Accurate mass Q-TOF LC-MS instrument. For optical density measurement during bacteriology experiments, Tecan Infinite Pro series M200 Microplate Reader was used. Bacterial strains, A. baumannii (R674), P. aeruginosa (R590), E. coli (R3336) and K. pneumoniae (R3934) were used for the studies.
(§2) The combination efficacy with antibiotics from different classes and individual antibacterial activity of the synthesized adjuvants was evaluated against the above mentioned MDR and NDM-1 strains of Gram-negative bacteria. All the bacteria were grown in peptone. The bacterial samples were freeze dried and stored at −80° C. 3 μl of these stocks were added to 3 mL of peptone and the culture was grown for 6 h at 37° C. prior to the experiments.
(§3) All synthesized compounds were assayed for their antibacterial activity in combination with antibiotics in a modified chequerboard micro-dilution broth format. Stock solutions were made by serially diluting the compounds using autoclaved millipore water. The bacterial freeze dried stock samples were stored at −80° C. About 3 μL of these stocks were added to about 3 mL of the respective broth and the culture was grown for about 6 h at about 37° C. with prior to the experiments. This 6 h grown culture gives about 10^8 cfu/mL in case of A. baumannii R674, P. aeruginosa R590, E. coli R3336 and K. pneumoniae R3934 which were determined by spread plating method. This 6 h grown culture was diluted to give effective cell concentration of 10^5 cfu/mL, and then used for the chequerboard assay. Adjuvants and antibiotics were serially diluted in two-fold, in sterile millipore water. 25 μL of these serial dilutions of the antibiotics and 25 μL of compounds were added to the wells of 96 well plate followed by the addition of about 150 μL of bacterial solution (˜10^5 cfu/mL). The plates were then incubated at about 37° C., 150 rpm in the incubator and O.D at 600 nm was recorded at 24 h using TECAN (Infinite series, M200 pro) Plate Reader. The wells with similar OD as the media control contained the required concentration of the antibiotic and adjuvant for antibacterial efficacy. The potentiation ability of the adjuvants was determined by calculating the potentiation factor and the Fractional Inhibitory concentration (FIC) index. Fractional Inhibitory Concentration (FIC) is expressed as, FIC=[X]/MICX, where [X] is the lowest inhibitory concentration of antibiotic in the presence of the adjuvant. Whereas FIC index is expressed as, FICI=FICantibiotic+FICadjuvant. The values of FIC index give an insight about the nature of the combination. Potentiation factor which means fold-reduction in the MIC of the antibiotic, when used in combination with the adjuvant was also determined. Potentiation factor=[Minimum inhibitory concentration (MIC) of antibiotic in absence of adjuvant]/[MIC of antibiotic in presence of adjuvant]. […] The combination efficacies of adjuvants with various antibiotics are furnished in Table 1. It should be noted that various other resistant strains of bacteria (Gram-positive and Gram-negative) can be tested with a number of other antibiotics to check the potentiation capacity of the adjuvants.

The subject of data set [2] is A. baumannii R674. Kind of data set: Individual antibacterial activity (MIC) of adjuvants. As to conditions: adjuvant alone; A. baumannii R674. As for the experimental part:
as §2, §3

Data set [3] concerns P. aeruginosa R590. In words: Chequerboard combination efficacy of adjuvant with antibiotics. How it is done: as §1, §2, §3
Data set [4] deals with P. aeruginosa R590. In words: Individual antibacterial activity (MIC) of adjuvants. The following applies: adjuvant alone; P. aeruginosa R590. How it is done:
as §2, §3

[5] abbreviates: antibiotic Rifampicin, P. aeruginosa R590.
The mark [6] stands for this setting: antibiotic Tetracycline, P. aeruginosa R590.

Values joined by “and” are separate entries in the source; they are usually repeats but may differ in a detail not shown here. Equal values may be shown once. Read-outs that look alike come from different tables or passages of the source. A value given as a limit tells only on which side of the number the result lay.

The compound `NCCCN(CCCN)C(=O)Cc1ccccc1.O=C(O)C(F)(F)F.O=C(O)C(F)(F)F` [Compound 1, N,N-bis((3-amino)propyl)phenyl ethanamide bis(trifluoroacetate)] showed a concentration for 50% haemolysis (HC50) in the data set with human RBCs greater than 1024 µg/mL. Also, in the data set on A. baumannii R674 [1] (antibiotic Rifampicin), the FICI is less than 0.75, the “MIC of antibiotic in presence of adjuvant” value (shortened to “MIC of antibiotic”) worked out at 32 µg/mL and the Potentiation factor was found to be 2. Besides, in the data set with A. baumannii R674 [1] (antibiotic Tetracycline), the FICI was less than 0.5, the “MIC of antibiotic” value turned out to be 64 µg/mL and the Potentiation factor was found to be 2. Also, the “MIC against clinical isolates of bacteria” value (from here on “MIC … of bacteria”) in the data set on A. baumannii R674 [2] was greater than 512 µg/mL.
Consider `NCCCN(CCCN)C(=O)Cc1cccc2ccccc12.O=C(O)C(F)(F)F.O=C(O)C(F)(F)F` [Compound 2, N,N-bis((3-amino)propyl)naphthyl ethanamide bis(trifluoroacetate)], for which the concentration for 50% haemolysis (HC50) in the data set with human RBCs was greater than 1024 µg/mL. In addition, the FICI is listed as less than 0.375 with A. baumannii R674 [1] (antibiotic Rifampicin), less than 0.625 in the data set with A. baumannii R674 [1] (antibiotic Tetracycline), less than 0.375 with P. aeruginosa R590 [3] (setting [5]) and less than 0.5 with P. aeruginosa R590 [3] (setting [6]). Also, the “MIC of antibiotic” value in the data set on A. baumannii R674 [1] (antibiotic Rifampicin) came out at 8 µg/mL; in the data set with A. baumannii R674 [1] (antibiotic Tetracycline), 64 µg/mL; in the data set on P. aeruginosa R590 [3] (setting [5]) it was 16 µg/mL; in the data set on P. aeruginosa R590 [3] (setting [6]), 64 µg/mL. Also, the Potentiation factor in the data set with A. baumannii R674 [1] (antibiotic Rifampicin) came to 8; with A. baumannii R674 [1] (antibiotic Tetracycline), 2; in the data set with P. aeruginosa R590 [3] (setting [5]), 8; in the data set with P. aeruginosa R590 [3] (setting [6]) it was 4. The “MIC … of bacteria” value in the data set with A. baumannii R674 [2] and in the data set with P. aeruginosa R590 [4] was greater than 512 µg/mL in each case.
`NCCCN(CCCN)C(=O)c1ccc(-c2ccccc2)cc1.O=C(O)C(F)(F)F.O=C(O)C(F)(F)F` [Compound 3] had an HC50 in the data set on human RBCs greater than 1024 µg/mL. Also, the FICI in the data set on A. baumannii R674 [1] (antibiotic Rifampicin) and with P. aeruginosa R590 [3] was less than 0.5 throughout. Also, the “MIC of antibiotic” value with A. baumannii R674 [1] (antibiotic Rifampicin) is 16 µg/mL; with A. baumannii R674 [1] (antibiotic Tetracycline), greater than 64 µg/mL; in the data set with P. aeruginosa R590 [3] it was 32 µg/mL and >64 µg/mL. The Potentiation factor in the data set with A. baumannii R674 [1] (antibiotic Rifampicin) is given as 4; with A. baumannii R674 [1] (antibiotic Tetracycline), less than 2; in the data set with P. aeruginosa R590 [3] (setting [5]), 4; with P. aeruginosa R590 [3] (setting [6]) it was less than 4. Besides, the “MIC … of bacteria” value with A. baumannii R674 [2] and in the data set with P. aeruginosa R590 [4] was greater than 512 µg/mL each time.
In the case of `NCCCN(CCCN)C(=O)CC(c1ccccc1)c1ccccc1.O=C(O)C(F)(F)F.O=C(O)C(F)(F)F` [Compound 4, N,N-bis((3-amino)propyl)3,3-diphenyl propanamide bis(trifluoroacetate)], in the data set with human RBCs, the 50% haemolytic concentration (HC50) is greater than 1024 µg/mL. Besides, the FICI with A. baumannii R674 [1] (antibiotic Rifampicin) was less than 0.26; in the data set on A. baumannii R674 [1] (antibiotic Tetracycline), less than 0.5; in the data set with P. aeruginosa R590 [3] (setting [5]) it was less than 0.28; in the data set with P. aeruginosa R590 [3] (setting [6]) it was less than 0.5. The “MIC of antibiotic” value in the data set with A. baumannii R674 [1] (antibiotic Rifampicin) amounted to 1 µg/mL; in the data set with A. baumannii R674 [1] (antibiotic Tetracycline), 32 µg/mL; with P. aeruginosa R590 [3] (setting [5]), 4 µg/mL; in the data set with P. aeruginosa R590 [3] (setting [6]), 64 µg/mL. Further, the Potentiation factor was 64 in the data set on A. baumannii R674 [1] (antibiotic Rifampicin), 4 with A. baumannii R674 [1] (antibiotic Tetracycline), 32 with P. aeruginosa R590 [3] (setting [5]) and 4 in the data set with P. aeruginosa R590 [3] (setting [6]). The “MIC … of bacteria” value in the data set with A. baumannii R674 [2] and in the data set with P. aeruginosa R590 [4] was greater than 512 µg/mL throughout.
`CC(C)(C)OC(=O)NC(Cc1c[nH]c2ccccc12)C(=O)N(CCCN)CCCN.O=C(O)C(F)(F)F.O=C(O)C(F)(F)F.O=C(O)C(F)(F)F` (stereo not drawn) [Compound 5, N,N-bis((3-amino)propyl) 2′-(Boc-amino), 3′-indolo propanamide tris(trifluoroacetate)]: the HC50 in the data set on human RBCs is greater than 1024 µg/mL. Further, the FICI is less than 0.375 in the data set with A. baumannii R674 [1] (antibiotic Rifampicin) and less than 0.3125 with P. aeruginosa R590 [3] (setting [5]). Further, the figures for the “MIC of antibiotic” value in the data set with A. baumannii R674 [1] (antibiotic Rifampicin), in the data set with P. aeruginosa R590 [3] (setting [5]) and in the data set on P. aeruginosa R590 [3] (setting [6]) were 8 µg/mL, 8 µg/mL and greater than 64 µg/mL, respectively. Moreover, the Potentiation factor is 8 in the data set on A. baumannii R674 [1] (antibiotic Rifampicin), less than 2 with A. baumannii R674 [1] (antibiotic Tetracycline), 16 in the data set with P. aeruginosa R590 [3] (setting [5]) and less than 4 in the data set with P. aeruginosa R590 [3] (setting [6]). Also, the “MIC … of bacteria” value with A. baumannii R674 [2] and in the data set on P. aeruginosa R590 [4] was greater than 512 µg/mL each time.
In the data set on human RBCs, `NCCCN(CCCN)CC(=O)NC1C2CC3CC(C2)CC1C3.O=C(O)C(F)(F)F.O=C(O)C(F)(F)F.O=C(O)C(F)(F)F` (stereo not drawn) [Compound 6, N-(Adamantan-2-yl)-2-[N′,N′-{bis-(3-amino)propyl}amino] ethanamide tris(trifluoroacetate)] gave a concentration for 50% haemolysis (HC50) greater than 1024 µg/mL. Besides, the FICI in the data set with A. baumannii R674 [1] (antibiotic Rifampicin) and in the data set on P. aeruginosa R590 [3] (setting [5]) was less than 0.06 throughout. Further, the “MIC of antibiotic” value in the data set on A. baumannii R674 [1] (antibiotic Rifampicin) was less than 0.25 µg/mL; with A. baumannii R674 [1] (antibiotic Tetracycline), greater than 64 µg/mL; in the data set with P. aeruginosa R590 [3] (setting [5]), less than 0.25 µg/mL; in the data set on P. aeruginosa R590 [3] (setting [6]) it was greater than 64 µg/mL. Further, the Potentiation factor in the data set on A. baumannii R674 [1] (antibiotic Rifampicin) is given as greater than 256; in the data set on A. baumannii R674 [1] (antibiotic Tetracycline), less than 2; in the data set with P. aeruginosa R590 [3] (setting [5]) it was greater than 512; with P. aeruginosa R590 [3] (setting [6]), less than 4. Besides, the “MIC … of bacteria” value in the data set with A. baumannii R674 [2] and in the data set with P. aeruginosa R590 [4] was 512 µg/mL throughout.
Take `NCCCC[C@H](N)C(=O)NCCCN(CCCNC(=O)[C@@H](N)CCCCN)C(=O)Cc1cccc2ccccc12` [Compound 7, N,N-bis-[(6-(^LLys)amido)propyl] naphthyl ethanamide tetrakis(trifluoroacetate)]: the HC50 with human RBCs is greater than 1024 µg/mL. The FICI with A. baumannii R674 [1] (antibiotic Rifampicin) is given as less than 0.25; with A. baumannii R674 [1] (antibiotic Tetracycline), less than 0.5; in the data set with P. aeruginosa R590 [3] (setting [5]), less than 0.28; in the data set on P. aeruginosa R590 [3] (setting [6]), less than 0.5. Besides, the “MIC of antibiotic” value is 8 µg/mL in the data set with A. baumannii R674 [1] (antibiotic Rifampicin), 32 µg/mL in the data set with A. baumannii R674 [1] (antibiotic Tetracycline), 4 µg/mL with P. aeruginosa R590 [3] (setting [5]) and 64 µg/mL in the data set on P. aeruginosa R590 [3] (setting [6]). The Potentiation factor with A. baumannii R674 [1] (antibiotic Rifampicin) was found to be 8; with A. baumannii R674 [1] (antibiotic Tetracycline) it was 4; in the data set with P. aeruginosa R590 [3] (setting [5]) it was 32; in the data set with P. aeruginosa R590 [3] (setting [6]), 4. Also, the “MIC … of bacteria” value with A. baumannii R674 [2] and in the data set on P. aeruginosa R590 [4] was greater than 512 µg/mL each time.

These data come from patent US20220323383A1, “SMALL-MOLECULAR ADJUVANTS AND IMPLEMENTATIONS THEREOF” (JAWAHARLAL NEHRU CENTRE FOR ADVANCED SCIENTIFIC RESEARCH, priority 2019, published 2022).
